Data: the supplement of paper PMC11451515

What was measured:
Conditions in all cases: 48 h
[1] = system: NOMO1; test: AUC of viability dose-response curve (% viability x log10 dose units); higher = less sensitive
Summary of the method: (§1)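 Library compounds in DMSO were applied for 48 h at 37°C at 11 threefold doses (47 μM to 0.79 nM) to medium-adapted leukemia cells in 1536-well plates holding 500 or 1000 cells/well. Luminescence from CellTiter-Glo One was normalised plate by plate against DMSO and cell-free wells. Area under the curve came from trapezoidal integration of a log-logistic fit, after scaling curves that rose above full viability and discarding those that failed quality control. The fit had four parameters and used log10 doses.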

[2] = system: P12-Ichikawa; test: as above
Summary of the method: as §1

[3] = system: SEM cells; test: as above
Summary of the method: as §1

[4] = system: SEM cells; test: cell viability relative to DMSO control; higher = less cytotoxic
Summary of the method: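 Viability values are per-plate percentages of DMSO wells, with background from cell-free wells. Library compounds in DMSO were pin-dosed, in an 11-point threefold series from 47 μM to 0.79 nM, onto NOMO1 or SEM (500 cells/well) or P12-Ichikawa (1000 cells/well) leukemia cells in 1536-well plates (5 μl). Those cells had been adapted for at least four passages in each medium, and CellTiter-Glo One luminescence was read after 48 h at 37°C.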

[5] = RPMI 5 mM glucose + 10% dialyzed FBS
[6] = HPLM + 10% dialyzed FBS, 0.000781 µM
[7] = HPLM + 10% dialyzed FBS, 0.00234 µM
[8] = HPLM + 10% dialyzed FBS, 0.00702 µM
[9] = HPLM + 10% dialyzed FBS, 0.0211 µM
[10] = HPLM + 10% dialyzed FBS, 0.0632 µM
[11] = HPLM + 10% dialyzed FBS, 0.19 µM
[12] = HPLM + 10% dialyzed FBS, 0.569 µM
[13] = HPLM + 10% dialyzed FBS, 1.71 µM
[14] = HPLM + 10% dialyzed FBS, 5.12 µM
[15] = HPLM + 10% dialyzed FBS, 15.4 µM
[16] = HPLM + 10% dialyzed FBS, 46.1 µM

SMILES	AUC of viability dose-response curve ([1]; HPLM + 10% dialyzed FBS)	AUC of viability dose-response curve ([1]; RPMI 5 mM glucose + 10% FBS)	AUC of viability dose-response curve [1, 5]	AUC of viability dose-response curve ([2]; HPLM + 10% dialyzed FBS)	AUC of viability dose-response curve ([2]; RPMI 5 mM glucose + 10% FBS)	AUC of viability dose-response curve [2, 5]	AUC of viability dose-response curve ([3]; HPLM + 10% dialyzed FBS)	AUC of viability dose-response curve ([3]; RPMI 5 mM glucose + 10% FBS)	AUC of viability dose-response curve [3, 5]	cell viability [4, 6]	cell viability [4, 7]	cell viability [4, 8]	cell viability [4, 9]	cell viability [4, 10]	cell viability [4, 11]	cell viability [4, 12]	cell viability [4, 13]	cell viability [4, 14]	cell viability [4, 15]	cell viability [4, 16]	cell viability ([4]; RPMI 5 mM glucose + 10% FBS, 0.000781 µM)	cell viability ([4]; RPMI 5 mM glucose + 10% FBS, 0.00234 µM)	cell viability ([4]; RPMI 5 mM glucose + 10% FBS, 0.00702 µM)	cell viability ([4]; RPMI 5 mM glucose + 10% FBS, 0.0211 µM)	cell viability ([4]; RPMI 5 mM glucose + 10% FBS, 0.0632 µM)	cell viability ([4]; RPMI 5 mM glucose + 10% FBS, 0.19 µM)	cell viability ([4]; RPMI 5 mM glucose + 10% FBS, 0.569 µM)	cell viability ([4]; RPMI 5 mM glucose + 10% FBS, 1.71 µM)	cell viability ([4]; RPMI 5 mM glucose + 10% FBS, 5.12 µM)	cell viability ([4]; RPMI 5 mM glucose + 10% FBS, 15.4 µM)	cell viability ([4]; RPMI 5 mM glucose + 10% FBS, 46.1 µM)
N=C(N)NC(=N)NCCc1ccccc1	464	456	455	450	440	438	465	461	444																						
O=C(CN1C(=O)C2(CCCC2)NC[C@H]1c1cc(F)cc(F)c1)Nc1ccc2c(c1)C[C@@]1(C2)C(=O)Nc2ncccc21	445	459	467	472	466	471	461	463	446	109%	104%	119%	139%	125%	131%	132%	140%	142%	114%	104%	123%	104%	126%	142%	131%	136%	145%	131%	135%	129%	129%
C[C@@H]1C(=O)O[C@H]2CC34[C@H]5C[C@@H](C(C)(C)C)C36[C@@H](OC(=O)[C@@H]6O)O[C@@]4(C(=O)O5)[C@]21O (stereo partly drawn)	431	460	463	447	462	462	465	467	456																						
CN1CC[C@H]([C@@H](O)C1)C2=C(O)C=C(O)C3=C2O\C(=C/C3=O)C4=CC=CC=C4Cl	265	288	285	306	301	300	281	276	282	104%	121%	134%	132%	128%	131%	23%	10.1%	6.69%	5.22%	6.07%											
C[S+](=O)([O-])c1ccc([C@@H](O)[C@@H](CO)NC(=O)C(Cl)Cl)cc1	445	476	455	456	431	420	432	421	450																						
